In PubChem BioAssay AID328 (DTP/NCI, 2004) one finds T/C data, which are given here for 19 compounds.

Molecules are shown by their SMILES. “And” between values parts separate entries of the source, which are not always exact repeats. Equal entries are not always repeated. Inconclusive results and toxic doses are left out.

For this assay, the system named is BDF1 mice, P388 leukemia ip, median survival T/C. In words: NCI In Vivo Anticancer Drug Screen. Data for tumor model P388 Leukemia (intraperitoneal) in B6D2F1 (BDF1) mice. The settings on record: endpoint: median survival time, higher = longer survival. Put shortly: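 Steps: implant the tumour, treat one group with compound and another with vehicle, record survival, then divide treated by control.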

[1] abbreviates: dose: 100.0 mg/kg/injection, schedule: Q01DX009 (ip), vehicle: saline with Tween-80.
The mark [2] stands for this setting: dose: 50.0 mg/kg/injection, schedule: Q01DX009 (ip), vehicle: Klucel (hydroxypropylcellulose) (HPC).
[3] abbreviates: dose: 100.0 mg/kg/injection, schedule: Q04DX003 (ip), vehicle: saline with Tween-80.
Where [4] appears, read: dose: 200.0 mg/kg/injection, schedule: Q04DX003 (ip), vehicle: saline with Tween-80.
[5] abbreviates: dose: 400.0 mg/kg/injection, schedule: Q04DX003 (ip), vehicle: saline with Tween-80.
[6] abbreviates: dose: 100.0 mg/kg/injection, schedule: Q01DX009 (ip), vehicle: saline.
[7] abbreviates: dose: 50.0 mg/kg/injection, schedule: Q01DX005 (ip), vehicle: saline with Tween-80.
[8] abbreviates: dose: 200.0 mg/kg/injection, schedule: Q01DX005 (ip), vehicle: saline with Tween-80.

On to `C1=CC2C3=CC1C=CC32` (centres undefined), for which the T/C (dose: 18.75 mg/kg/injection, schedule: Q04DX003 (ip), vehicle: Klucel (hydroxypropylcellulose) (HPC)) is 91 % of control; the T/C (dose: 37.5 mg/kg/injection, schedule: Q04DX003 (ip), vehicle: Klucel (hydroxypropylcellulose) (HPC)) was 95 % of control; the T/C (dose: 75.0 mg/kg/injection, schedule: Q04DX003 (ip), vehicle: Klucel (hydroxypropylcellulose) (HPC)) is 91 % of control.

Take `NC(=O)c1cc(O)c(Br)c(O)c1`: the T/C was 100 % of control (dose: 100.0 mg/kg/injection, schedule: Q01DX001 (ip), vehicle: saline); 109 % of control (dose: 200.0 mg/kg/injection, schedule: Q01DX001 (ip), vehicle: saline); 95 % of control (dose: 400.0 mg/kg/injection, schedule: Q01DX001 (ip), vehicle: saline).

For the compound `C/C(=N\NC(=O)C(=O)N/N=C(\C)c1ccccc1)c1ccccc1`, the T/C runs as follows: (dose: 50.0 mg/kg/injection, schedule: Q01DX009 (ip), vehicle: saline with Tween-80) 96 % of control; under setting [1], 91 % of control.

As for `COc1cc(OC)c2c[n+](C)c3c4cc(OC)c(OC)cc4ccc3c2c1`, the T/C reads like this: (dose: 6.25 mg/kg/injection, schedule: Q01DX009 (ip), vehicle: Klucel (hydroxypropylcellulose) (HPC)) 154 % of control; (dose: 12.5 mg/kg/injection, schedule: Q01DX009 (ip), vehicle: Klucel (hydroxypropylcellulose) (HPC)) 154 % of control and 169 % of control; (dose: 25.0 mg/kg/injection, schedule: Q01DX009 (ip), vehicle: Klucel (hydroxypropylcellulose) (HPC)) 170 % of control and 172 % of control; under setting [2], 155 % of control and 180 % of control.

In the case of `CCCOn1nnc2cc(Cl)ccc21`, the T/C by setting is: under setting [1], 100 % of control; (dose: 200.0 mg/kg/injection, schedule: Q01DX009 (ip), vehicle: saline with Tween-80) 92 % of control.

Turning to `CC1NC(=O)C2Cc3ccc(O)c(c3)Oc3cccc(c3)C(O)C(C(=O)N2C)N(C)C(=O)C(C)NC(=O)C(Cc2ccc(O)c(O)c2)N(C)C(=O)C(C)NC1=O` (centres undefined), the T/C by setting is: (dose: 0.25 mg/kg/injection, schedule: Q01DX009 (ip), vehicle: distilled water + Tween-80) 94 % of control; (dose: 0.5 mg/kg/injection, schedule: Q01DX009 (ip), vehicle: distilled water + Tween-80) 99 % of control; (dose: 1.0 mg/kg/injection, schedule: Q01DX009 (ip), vehicle: distilled water + Tween-80) 94 % of control; (dose: 2.0 mg/kg/injection, schedule: Q01DX009 (ip), vehicle: distilled water + Tween-80) 96 % of control; (dose: 4.0 mg/kg/injection, schedule: Q01DX009 (ip), vehicle: distilled water + Tween-80) 99 % of control; (dose: 8.0 mg/kg/injection, schedule: Q01DX009 (ip), vehicle: distilled water + Tween-80) 99 % of control.

As to `ClC(Cl)C(Cl)(Cl)C(Cl)(Cl)Cl`, the T/C was 91 % of control under setting [2]; 104 % of control (dose: 50.0 mg/kg/injection, schedule: Q04DX003 (ip), vehicle: Klucel (hydroxypropylcellulose) (HPC)); 95 % of control (dose: 100.0 mg/kg/injection, schedule: Q01DX009 (ip), vehicle: Klucel (hydroxypropylcellulose) (HPC)); 109 % of control (dose: 100.0 mg/kg/injection, schedule: Q04DX003 (ip), vehicle: Klucel (hydroxypropylcellulose) (HPC)); 100 % of control (dose: 200.0 mg/kg/injection, schedule: Q01DX009 (ip), vehicle: Klucel (hydroxypropylcellulose) (HPC)); 109 % of control (dose: 200.0 mg/kg/injection, schedule: Q04DX003 (ip), vehicle: Klucel (hydroxypropylcellulose) (HPC)).

Consider `CC(C)(C)C#C[P+](C#CC(C)(C)C)(Cc1ccccc1)c1ccccc1`, for which the T/C by setting is: (dose: 12.5 mg/kg/injection, schedule: Q01DX009 (ip), vehicle: saline) 96 % of control; (dose: 12.5 mg/kg/injection, schedule: Q04DX003 (ip), vehicle: saline) 123 % of control; (dose: 25.0 mg/kg/injection, schedule: Q04DX003 (ip), vehicle: saline) 123 % of control; (dose: 50.0 mg/kg/injection, schedule: Q04DX003 (ip), vehicle: saline) 107 % of control.

Regarding `C/C=C(/C)C(=O)O[C@H]1CCN2CC=C(COC(=O)[C@@](O)([C@H](C)OC)C(C)(C)O)[C@H]12`, the T/C is 95 % of control (dose: 12.5 mg/kg/injection, schedule: Q01DX010 (ip), vehicle: saline) and 100 % of control (dose: 25.0 mg/kg/injection, schedule: Q01DX010 (ip), vehicle: saline).

As to `CC(=O)c1ccc(NC(=O)C(F)(F)F)cc1`, the T/C was 111 % of control (dose: 50.0 mg/kg/injection, schedule: Q04DX003 (ip), vehicle: saline with Tween-80); 96 % of control under setting [3]; 103 % of control under setting [4]; 103 % of control under setting [5].

For `CNc1nc2ncn(C)c2c(=O)[nH]1`, the T/C is 100 % of control under setting [6]; 109 % of control (dose: 200.0 mg/kg/injection, schedule: Q01DX009 (ip), vehicle: saline); 95 % of control (dose: 400.0 mg/kg/injection, schedule: Q01DX009 (ip), vehicle: saline).

Take `NC(CC1=CCC=CC1)C(=O)O` (centres undefined): the T/C is 96 % of control and 113 % of control (dose: 50.0 mg/kg/injection, schedule: Q01DX009 (ip), vehicle: saline); 117 % of control under setting [6].

With `Cc1ccc(NS(=O)(=O)c2ccc(Br)cc2)c(C)c1`, the T/C runs as follows: under setting [3], 100 % of control; under setting [4], 100 % of control; under setting [5], 104 % of control.

Turning to `CC(C)(C)[Si](C)(C)OC(=O)Nc1ccc(N(CCCl)CCCl)cc1`, the T/C (dose: 0.05 mg/kg/injection, schedule: Q01DX009 (ip), vehicle: saline with Tween-80) is 104 % of control; the T/C (dose: 0.07 mg/kg/injection, schedule: Q01DX009 (ip), vehicle: saline with Tween-80) is 114 % of control; the T/C (dose: 0.11 mg/kg/injection, schedule: Q01DX009 (ip), vehicle: saline with Tween-80) is 117 % of control; the T/C (dose: 0.16 mg/kg/injection, schedule: Q01DX009 (ip), vehicle: saline with Tween-80) was 108 % of control; the T/C (dose: 0.32 mg/kg/injection, schedule: Q01DX009 (ip), vehicle: saline with Tween-80) is 107 % of control.

Take `O=c1c2ccccc2nnn1Cc1ccco1`: the T/C is 99 % of control under setting [7] and 89 % of control under setting [8].

As for `CCN(CC)c1cccc(N)c1`, the T/C (dose: 50.0 mg/kg/injection, schedule: Q01DX009 (sc), vehicle: olive oil, sesame oil, peanut oil) is 104 % of control; the T/C (dose: 50.0 mg/kg/injection, schedule: Q04DX003 (sc), vehicle: olive oil, sesame oil, peanut oil) is 100 % of control; the T/C (dose: 100.0 mg/kg/injection, schedule: Q01DX009 (sc), vehicle: olive oil, sesame oil, peanut oil) is 87 % of control; the T/C (dose: 100.0 mg/kg/injection, schedule: Q04DX003 (sc), vehicle: olive oil, sesame oil, peanut oil) is 104 % of control; the T/C (dose: 200.0 mg/kg/injection, schedule: Q04DX003 (sc), vehicle: olive oil, sesame oil, peanut oil) was 100 % of control.

Turning to `C=CCCCCC/C=C/CCCCCC`, the T/C is 90 % of control (dose: 75.0 mg/kg/injection, schedule: Q01DX010 (ip), vehicle: saline with Tween-80) and 122 % of control (dose: 150.0 mg/kg/injection, schedule: Q01DX010 (ip), vehicle: saline with Tween-80).

As to `CCOP(=S)(OCC)Oc1cnn(C)c(=S)c1Cl`, the T/C is 98 % of control under setting [7]; 101 % of control (dose: 100.0 mg/kg/injection, schedule: Q01DX005 (ip), vehicle: saline with Tween-80); 108 % of control under setting [8].

As to `O=S(=O)(Nc1cc(S(=O)(=O)c2ccccc2)c(O)c2ccccc12)c1ccccc1`, the T/C (dose: 75.0 mg/kg/injection, schedule: Q01DX001 (ip), vehicle: saline with Tween-80) is 90 % of control; the T/C (dose: 150.0 mg/kg/injection, schedule: Q01DX001 (ip), vehicle: saline with Tween-80) is 90 % of control; the T/C (dose: 300.0 mg/kg/injection, schedule: Q01DX001 (ip), vehicle: saline with Tween-80) is 100 % of control.
